# Test results: patent publication US9796711B2, “Substituted pyrazolo[3,4-b]pyridin-6-carboxylic acids and method of use” (AbbVie S.àr.l., priority 2015, dated 2017)
# Key:
# [1] = target: T1, ΔF508-CFTR (Homo sapiens, UniProt P13569, DEL508-508); assay: CFTR cell surface levels using HRP-tagged ΔF508-CFTR expressing CFBE cells, intrinsic corrector capacity; assay type: cell-based; conditions: HRP-tagged ΔF508-CFTR CFBE41o- cells, compounds alone (intrinsic corrector capacity), 20 hours at 33° C.; for % Activation: positive control 3 μM corrector; for EC50: read-out: EC50
# T1 construct: host or cells: CFBE41o-, doxycycline-inducible
# Outline: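 Here the cells express ΔF508-CFTR with horseradish peroxidase inserted in extracellular loop 4, so only rescued channel at the surface gives luminescent signal. Compounds act on their own, 20 h at the reduced temperature of 33 °C; values are percent activity relative to DMSO and a 3 μM corrector.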
# [2] = target: T1, ΔF508-CFTR; assay: CFTR cell surface levels using HRP-tagged ΔF508-CFTR expressing CFBE cells, in the presence of a co-corrector; assay type: cell-based; conditions: HRP-tagged ΔF508-CFTR expressing CFBE cells, in the presence of 3 μM co-corrector; for EC50: read-out: EC50
# Outline: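 Cells were seeded with 0.5 μg/mL doxycycline and held 68 h at 37 °C. Test compounds plus 3 μM co-corrector (final 0.1% DMSO) were then added for 20 h at 33 °C. Washed cells received HRP substrate, and luminescence was normalized between DMSO and 3 μM co-corrector controls.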
# T1 sequence (P13569 with tags, fused parts or gaps DEL508-508): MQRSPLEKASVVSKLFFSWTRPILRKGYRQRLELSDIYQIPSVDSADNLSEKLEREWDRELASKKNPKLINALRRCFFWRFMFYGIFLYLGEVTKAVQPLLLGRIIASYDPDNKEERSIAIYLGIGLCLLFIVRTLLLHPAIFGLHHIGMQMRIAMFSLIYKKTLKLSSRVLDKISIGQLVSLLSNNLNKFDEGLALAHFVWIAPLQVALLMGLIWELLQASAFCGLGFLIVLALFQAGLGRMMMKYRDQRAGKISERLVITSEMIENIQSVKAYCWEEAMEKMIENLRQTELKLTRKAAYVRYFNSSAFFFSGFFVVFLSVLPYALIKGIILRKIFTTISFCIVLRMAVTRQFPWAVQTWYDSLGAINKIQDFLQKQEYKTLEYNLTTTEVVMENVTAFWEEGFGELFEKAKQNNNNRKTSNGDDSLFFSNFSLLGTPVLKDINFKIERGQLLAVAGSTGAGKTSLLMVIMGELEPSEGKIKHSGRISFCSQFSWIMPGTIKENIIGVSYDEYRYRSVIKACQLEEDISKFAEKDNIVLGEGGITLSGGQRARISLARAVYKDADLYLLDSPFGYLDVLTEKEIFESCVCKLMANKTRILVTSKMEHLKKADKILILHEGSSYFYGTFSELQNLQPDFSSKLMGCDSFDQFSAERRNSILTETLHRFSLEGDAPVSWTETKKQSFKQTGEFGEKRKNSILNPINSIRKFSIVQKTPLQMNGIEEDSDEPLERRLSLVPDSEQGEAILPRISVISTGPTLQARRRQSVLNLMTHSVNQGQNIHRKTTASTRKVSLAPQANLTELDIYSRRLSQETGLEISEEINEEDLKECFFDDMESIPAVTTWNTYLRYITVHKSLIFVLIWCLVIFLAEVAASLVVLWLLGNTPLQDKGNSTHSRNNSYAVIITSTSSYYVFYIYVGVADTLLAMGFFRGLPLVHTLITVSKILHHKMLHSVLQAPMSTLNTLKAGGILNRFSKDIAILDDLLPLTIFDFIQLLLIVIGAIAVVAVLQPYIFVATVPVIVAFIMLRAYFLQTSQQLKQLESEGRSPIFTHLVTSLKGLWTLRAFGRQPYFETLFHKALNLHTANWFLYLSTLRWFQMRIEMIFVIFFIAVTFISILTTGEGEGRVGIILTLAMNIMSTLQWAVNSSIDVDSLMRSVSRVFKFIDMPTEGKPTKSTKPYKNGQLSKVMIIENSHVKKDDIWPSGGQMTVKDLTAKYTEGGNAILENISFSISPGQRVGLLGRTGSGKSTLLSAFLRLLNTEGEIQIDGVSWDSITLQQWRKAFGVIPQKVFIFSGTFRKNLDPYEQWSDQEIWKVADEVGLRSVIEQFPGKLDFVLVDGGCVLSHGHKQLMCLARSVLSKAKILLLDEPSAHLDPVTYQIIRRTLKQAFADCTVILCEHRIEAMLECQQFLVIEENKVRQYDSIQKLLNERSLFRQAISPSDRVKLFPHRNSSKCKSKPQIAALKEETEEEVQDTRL
Structure (SMILES),% Activation [1],EC50 [1],% Activation [2],EC50 [2]
"Cc1cccc(-n2nc(C(C)C)c3c(N4CC5(CCC5)C4)cc(C(=O)O)nc32)c1 [compound 273, 4-(2-azaspiro[3.3]heptan-2-yl)-1-(3-methylphenyl)-3-(propan-2-yl)-1H-pyrazolo[3,4-b]pyridine-6-carboxylic acid]",100.16%,1020 nM,311.05%,985 nM
"Cc1cccc(-n2nc(C(C)C)c3c(N4CC5(CCCCO5)C4)cc(C(=O)O)nc32)c1 [compound 274, 1-(3-methylphenyl)-4-(5-oxa-2-azaspiro[3.5]nonan-2-yl)-3-(propan-2-yl)-1H-pyrazolo[3,4-b]pyridine-6-carboxylic acid]",114.64%,1080 nM,301.45%,902 nM
"COCCN(CCOC)c1ccc(-c2cc(C(=O)O)nc3c2c(C(C)C)nn3C2CCCCC2)cn1 [compound 275, 4-{6-[bis(2-methoxyethyl)amino]pyridin-3-yl}-1-cyclohexyl-3-(propan-2-yl)-1H-pyrazolo[3,4-b]pyridine-6-carboxylic acid]",173.8%,923 nM,371.35%,736 nM
"CC(C)c1nn(C2CCCCC2)c2nc(C(=O)O)cc(-c3ccc(N(C)C4CCOC4)nc3)c12 (centres unmarked) [compound 276, 1-cyclohexyl-4-{6-[methyl(oxolan-3-yl)amino]pyridin-3-yl}-3-(propan-2-yl)-1H-pyrazolo[3,4-b]pyridine-6-carboxylic acid]",206.93%,504 nM,407.8%,372 nM
"CN(c1ncc(-c2cc(C(=O)O)nc3c2c(C2CCC2)nn3-c2cccc(N3CCCC3)c2)cn1)C1CCOCC1 [compound 277, 3-cyclobutyl-4-{2-[methyl(oxan-4-yl)amino]pyrimidin-5-yl}-1-[3-(pyrrolidin-1-yl)phenyl]-1H-pyrazolo[3,4-b]pyridine-6-carboxylic acid]",356.47%,513 nM,608.57%,515 nM
"CC(C)c1nn(-c2ccc(F)c(F)c2)c2nc(C(=O)O)cc(-c3ccc(N(C)C4CCOCC4)cc3)c12 [compound 278, 1-(3,4-difluorophenyl)-4-{4-[methyl(oxan-4-yl)amino]phenyl}-3-(propan-2-yl)-1H-pyrazolo[3,4-b]pyridine-6-carboxylic acid]",259.1%,991 nM,446.55%,676 nM
"CC(C)c1nn(-c2ccc(F)c(F)c2)c2nc(C(=O)O)cc(-c3ccc(N4CCC(C#N)CC4)nc3)c12 [compound 279, 4-[6-(4-cyanopiperidin-1-yl)pyridin-3-yl]-1-(3,4-difluorophenyl)-3-(propan-2-yl)-1H-pyrazolo[3,4-b]pyridine-6-carboxylic acid]",257.8%,900 nM,427.65%,499 nM
"CC(C)c1nn(-c2ccc(F)cc2)c2nc(C(=O)O)cc(-c3cnc(N(C)C4CCOCC4)nc3)c12 [compound 280, 1-(4-fluorophenyl)-4-{2-[methyl(oxan-4-yl)amino]pyrimidin-5-yl}-3-(propan-2-yl)-1H-pyrazolo[3,4-b]pyridine-6-carboxylic acid]",238.6%,485 nM,440.83%,249 nM
"CC(C)c1nn(-c2cccc(C(F)(F)F)c2)c2nc(C(=O)O)cc(-c3cnc(N(C)C4CCOCC4)nc3)c12 [compound 281, 4-{2-[methyl(oxan-4-yl)amino]pyrimidin-5-yl}-3-(propan-2-yl)-1[3-(trifluoromethyl)phenyl]-1H-pyrazolo[3,4-b]pyridine-6-carboxylic acid]",226.7%,1290 nM,425.85%,908 nM
"CC(C)c1nn(-c2cc(F)cc(F)c2)c2nc(C(=O)O)cc(-c3ccc(N4CCC(C#N)CC4)cc3)c12 [compound 282, 4-[4-(4-cyanopiperidin-1-yl)phenyl]-1-(3,5-difluorophenyl)-3-(propan-2-yl)-1H-pyrazolo[3,4-b]pyridine-6-carboxylic acid]",269.33%,492 nM,476.23%,341 nM
"CC(C)c1nn(-c2cccc(F)c2)c2nc(C(=O)O)cc(-c3ccc(N(C)C4CCOCC4)nc3)c12 [compound 283, 1-(3-fluorophenyl)-4-{6-[methyl(oxan-4-yl)amino]pyridin-3-yl}-3-(propan-2-yl)-1H-pyrazolo[3,4-b]pyridine-6-carboxylic acid]",233.17%,649 nM,435.2%,367 nM
"CC(C)c1nn(-c2cccc(F)c2)c2nc(C(=O)O)cc(-c3ccc(N(C)C4CCOCC4)cc3)c12 [compound 284, 1-(3-fluorophenyl)-4-{4-[nethyl(oxan-4-yl)amino]phenyl}-3-(propan-2-yl)-1H-pyrazolo[3,4-b]pyridine-6-carboxylic acid]",240.8%,501 nM,435.23%,282 nM
"CC(C)c1nn(-c2cccc(F)c2)c2nc(C(=O)O)cc(-c3ccc(N4CCC(C#N)CC4)nc3)c12 [compound 285, 4-[6-(4-cyanopiperidin-1-yl)pyridin-3-yl]-1-(3-fluorophenyl)-3-(propan-2-yl)-1H-pyrazolo[3,4-b]pyridine-6-carboxylic acid]",255.73%,655 nM,428%,261 nM
"CC(C)c1nn(-c2cccc(F)c2)c2nc(C(=O)O)cc(-c3ccc(N4CCC(C#N)CC4)cc3)c12 [compound 286, 4-[4-(4-cyanopiperidin-1-yl)phenyl]-1-(3-fluorophenyl)-3-(propan-2-yl)-1H-pyrazolo[3,4-b]pyridine-6-carboxylic acid]",259.83%,544 nM,448.23%,256 nM
"CC(C)c1nn(-c2cccc(C(F)(F)F)c2)c2nc(C(=O)O)cc(-c3ccc(N(C)C4CCOCC4)nc3)c12 [compound 287, 4-{6-[methyl(oxan-4-yl)amino]pyridin-3-yl}-3-(propan-2-yl)-1[3-(trifluoromethyl)phenyl]-1H-pyrazolo[3,4-b]pyridine-6-carboxylic acid]",234.95%,535 nM,464.35%,429 nM
"Cc1nn(-c2ccccc2)c2nc(C(=O)O)cc(N3CCC4(CC3)CN(C)C(=O)CO4)c12 [compound 288, 3-methyl-4-(4-methyl-3-oxo-1-oxa-4,9-diazaspiro[5.5]undecan-9-yl)-1-phenyl-1H-pyrazolo[3,4-b]pyridine-6-carboxylic acid]",20.49%,7500 nM,128%,7500 nM
"COCC1(C)CN(c2cc(C(=O)O)nc3c2c(C)nn3-c2ccccc2)C1 [compound 289, 4-[3-(methoxymethyl)-3-methylazetidin-1-yl]-3-methyl-1-phenyl-1H-pyrazolo[3,4-b]pyridine-6-carboxylic acid]",46.35%,2510 nM,172.8%,1830 nM
"Cc1nn(-c2ccccc2)c2nc(C(=O)O)cc(N3CC4CNCCN4C3=O)c12 (centres unmarked) [compound 290, 3-methyl-4-(3-oxohexahydroimidazo[1,5-a]pyrazin-2(3H)-yl)-1-phenyl-1H-pyrazolo[3,4-b]pyridine-6-carboxylic acid]",12.145%,7500 nM,127.35%,7500 nM
"COCC1CCN(c2cc(C(=O)O)nc3c2c(C)nn3-c2ccccc2)CC1 [compound 291, 4-[4-(methoxymethyl)piperidin-1-yl]-3-methyl-1-phenyl-1H-pyrazolo[3,4-b]pyridine-6-carboxylic acid]",168.85%,1710 nM,349.55%,1400 nM
"CC(=O)NC1CCN(c2cc(C(=O)O)nc3c2c(C)nn3-c2ccccc2)CC1 [compound 292, 4-(4-acetamidopiperidin-1-yl)-3-methyl-1-phenyl-1H-pyrazolo[3,4-b]pyridine-6-carboxylic acid]",15.095%,7500 nM,141.1%,4170 nM
"Cc1nn(-c2ccccc2)c2nc(C(=O)O)cc(N3CC4(CCOCC4)C3)c12 [compound 293, 3-methyl-4-(7-oxa-2-azaspiro[3.5]nonan-2-yl)-1-phenyl-1H-pyrazolo[3,4-b]pyridine-6-carboxylic acid]",90.275%,2510 nM,264.9%,2510 nM
"COCC1CN(c2cc(C(=O)O)nc3c2c(C)nn3-c2ccccc2)C1 [compound 294, 4-[3-(methoxymethyl)azetidin-1-yl]-3-methyl-1-phenyl-1H-pyrazolo[3,4-b]pyridine-6-carboxylic acid]",73.275%,2510 nM,225.5%,2510 nM
"CO[C@@H]1CCN(c2cc(C(=O)O)nc3c2c(C)nn3-c2ccccc2)C1 [compound 295, 4-[(3R)-3-methoxypyrrolidin-1-yl]-3-methyl-1-phenyl-1H-pyrazolo[3,4-b]pyridine-6-carboxylic acid]",46.475%,2510 nM,172.1%,2510 nM
